# Measurements published in PubChem BioAssay (NCI).
# “And” between values parts separate entries of the source, which are not always exact repeats. Identical values can stand only once.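 How tested: cells in 96-well plates exposed to compound for 48 hours at five concentrations. GI50 marks 50% less growth. Definition used: TGI = concentration required for complete inhibition of growth.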
# How the values were obtained:
# Assay in all cases: DTP human tumour cell line panel, 48 h
# [1] = system: SK-OV-3 ovarian
# [2] = system: MDA-MB-435
# [3] = system: HL-60(TB) leukemia
# [4] = system: LOX IMVI melanoma
# [5] = system: SNB-19 CNS
# [6] = system: SK-MEL-2 melanoma
# [7] = system: NCI-H23 lung
# [8] = system: SF-295 CNS
# [9] = system: UACC-62 melanoma
# [10] = system: UACC-257 melanoma
Compound,GI50 [1] [µM],TGI [1],GI50 [2] [µM],TGI [2],GI50 [3] [µM],TGI [3],GI50 [4] [µM],TGI [4],GI50 [5] [µM],TGI [5],GI50 [6] [µM],TGI [6],GI50 [7] [µM],TGI [7],GI50 [8] [µM],TGI [8],GI50 [9] [µM],TGI [9],GI50 [10] [µM],TGI [10]
Cc1cc(C2=NNC(=O)Cc3cc4c(cc32)OCCO4)cc(C)c1N,2.44,23.6 µM,0.261,0.978 µM,1.59,54.5 µM,3.18,> 100 µM,4.31,> 100 µM,3.42,> 100 µM,2.89,> 100 µM,0.47,2.87 µM,3.59,> 100 µM,,
O=C(c1ccco1)c1nc2cc(F)ccc2[n+]([O-])c1C(F)(F)F,35.3,> 100 µM,19.2,44 µM,18.4,49.2 µM,19.4,39.2 µM,47.4,> 100 µM,20.8,50.3 µM,19.1,42.7 µM,51.8,> 100 µM,24.8,68.2 µM,22.5,67.3 µM
CN(C)CCOc1ccc(/C(=C(/CCCl)c2ccccc2)c2ccccc2)cc1,1.62,5.07 µM,0.894,,1.06,2.11 µM and 15 µM,0.819,,1.85,22.6 µM and 28.5 µM,0.975,,1.42,5.52 µM and 31.3 µM,1.02,,0.891,1.66 µM,0.943,
O=[N+]([O-])c1ccc2c(N3CCC(CCCC4CCN(c5ncnc6cc([N+](=O)[O-])ccc56)CC4)CC3)ncnc2c1,> 46.3,> 100 µM,> 40.7,> 100 µM,17.8,> 100 µM,29.7,> 100 µM,> 42.3,> 100 µM,> 52.2,> 85.3 µM,2.29,> 100 µM,5.53,> 100 µM,> 33.4,> 56.9 µM,1.55,> 100 µM
CCOC(=O)c1c2c(n(Cc3ccccc3)c1C)-c1ccccc1C(=O)C2=O,19.8,37.2 µM,29,87 µM,79.4,> 100 µM,11.8,24.6 µM,15.4,29.4 µM,18.4,40.8 µM,12.1,27 µM,19.6,48.4 µM,17.8,34.2 µM,28.4,69.2 µM
Cc1cnc(/C=N\NC(N)=S)c2cccc(N)c12,3.14,> 100 µM,3.9,> 100 µM,0.752,3.18 µM and 2.83 µM,2.32,> 100 µM,3.42,> 100 µM,> 29.2,> 100 µM,2.14,> 100 µM,2.36,> 100 µM,1.13,9.26 µM and 6.67 µM,4.81,> 38.8 µM
C/C(=N\N=C(\[Se])N1CCN(c2ccccn2)CC1)c1ccccn1,,9.82 µM,0.0967,20.3 µM,0.00236,,0.00443,17.6 µM,0.13,18.6 µM,,2.36 µM,0.023,21.8 µM,0.0204,16.7 µM,,,0.0047,12.8 µM
CN(C)c1ccc(/C=C(\C#N)c2nc3ccccc3n2C)cc1,4.09,71.3 µM,0.251,3.13 µM,3.77,> 31.4 µM,5.68,> 62.2 µM,7.27,> 100 µM,3.9,68.5 µM,4.51,> 88.5 µM,1.9,16.9 µM,2.04,37.2 µM,20.2,> 100 µM
O=C1c2ccccc2C(=Cc2ccccc2)c2ccccc21,2.54,9.05 µM,0.31,11.9 µM,2.72,62.8 µM,2.32,10.7 µM,3.61,16.9 µM,1.78,4.95 µM,2.59,14.1 µM,2.59,13.6 µM,1.68,10.3 µM,5.22,23.9 µM
CC(=O)c1cc2c(cc1Nc1c3ccccc3nc3occ(Cl)c13)OCO2,0.781,> 100 µM,0.0444,0.161 µM,0.0647,0.57 µM,0.435,> 100 µM,0.601,> 100 µM,,> 100 µM,0.238,2.23 µM,0.0402,0.188 µM,0.271,,> 100,> 100 µM
COc1ccc2c(c1)C(=O)C(=O)c1cc(O)c(OC)c(OC)c1-2,1.79,7.27 µM and 3.17 µM,0.291,0.272 µM and 0.807 µM,,0.681 µM,1.48,1.83 µM and 3.16 µM,1.85,2.38 µM and 3.28 µM,1.95,1.62 µM and 3.42 µM,1.77,1.77 µM and 4.23 µM,1.77,1.65 µM and 3.15 µM,1.76,1.54 µM and 3.16 µM,1.55,1.61 µM and 2.89 µM
O=C(CCCN1CCOCC1)Nc1ccc(Cn2nnc3c2C(=O)c2nnn(Cc4ccc(NC(=O)CCCN5CCOCC5)cc4)c2C3=O)cc1,> 100,> 100 µM,1.65,3.08 µM,1.51,4.91 µM,2.01,6.3 µM,1.84,3.59 µM,2.04,4.15 µM,2.33,5.63 µM,> 100,> 100 µM,2.06,5.86 µM,1.7,3.23 µM
O=C(O)CCC(=O)c1ccc2ccc3cccc4ccc1c2c34,,> 100 µM,,> 100 µM,,> 100 µM,,> 100 µM,,> 100 µM,,> 100 µM,,> 100 µM,,> 100 µM,,> 100 µM,,> 100 µM
